The term IC50 denotes the concentration that gives 50% inhibition.

This note sets out measurements from patent US8895746B2 (University of Central Florida Research Foundation, Inc., priority 2009, dated 2014).

Several values for one entry are separate records, joined by “and”; a condition that tells them apart may be missing. Equal values may be shown once. Bounds are passed on as bounds.

One experiment concerns pTyr705Stat3. As to the kind of experiment: Western blot of pTyr705Stat3 in NIH3T3/v-Src and Panc-1 cells. The experiment is classed as cell-based, mouse, human. The conditions noted are these: 24 h. The method, then:
(§1) Immunoprecipitation from whole-cell lysates and SDS/PAGE and Western blotting analysis were performed as previously described (33,38).
Background: Immunoblotting shows a protein as a band on a membrane.

The subject of experiment [1] is normal human pancreatic duct epithelial cells (HPDEC). As to the kind of experiment: CyQuant cell viability. In kind it is cell-based. The source says: (§2) Aberrant Stat3 promotes malignant cell proliferation, survival and malignant transformation (10, 20, 42). Given that S3I201.1066 disrupts Stat3 activation, we asked the question whether this agent is able to selectively decrease the viability and growth of malignant cells that harbor aberrant Stat3 activity.

For experiment [2], the system named is mouse thymus epithelial stromal cells (TE71). As to the kind of experiment: CyQuant cell viability. The experiment is classed as cell-based.
From the text: as §2

The target in experiment [3] is Stat3 (Mus musculus, UniProt P42227). As to the kind of experiment: Fluorescence Polarization assay, Stat3 binding to 5-carboxyfluorescein-GpYLPQTV-NH2 probe. More on the design: Coding regions for the murine Stat3 protein; made in house; host or cells: E. coli BL21(DE3); species or system murine. The conditions noted are these: IC50, disruption of Stat3 binding to pTyr peptide probe, 150 nM Stat3, 10 nM probe. The method, then:
Coding regions for the murine Stat3 protein and Stat3 SH2 domain were amplified by PCR and cloned into vectors pET-44 Ek/LIC (Novagen) and pET SUMO (Invitrogen), respectively.
Fluorescence Polarization (FP) Assay was conducted as previously reported (23), with some modification using the phospho-peptide, 5-carboxyfluorescein-GpYLPQTV-NH2 (phosphorylated SEQ ID NO:7) (where pY represents phospho-Tyr) as probe and Stat3. The FP assay was used to evaluate the binding of agents to Stat3 and to determine the ability to disrupt the Stat3:pTyr peptide interaction. A fixed concentration of the fluorescently-labeled peptide probe (10 nM) was incubated with increasing concentration of the Stat3 protein for 30 min at room temperature in the buffer, 50 mM NaCI, 10 mM HEPES, 1 mM EDTA, 0.1% Nonidet P-40, and the fluorescent polarization measurements were determined using the POLARstar Omega (BMG LABTECH, Durham, N.C.), with the set gain adjustment at 35 mP. The Z′ value was derived per the equation Z′=1−(3 SDbound+3 SD free)/(mPbound−mPfree), where SD is the standard deviation and mP is the average of fluorescence polarization. In the bound state, 10 nM 5-carboxyfluorescein-GpYLPQTV-NH2 (phosphorylated SEQ ID NO:7) was incubated with 150 nM purified Stat3 protein, while the free (unbound) state was the same mixture, but incubated with an additional 10 IJM unlabeled Ac-GpYLPQTV-NH2 (phosphorylated SEQ ID NO:7). For evaluating agents, Stat3 protein (150 nM) was incubated with serial concentrations of S31-201.1066 at 30° C. for 60 min in the indicated assay buffer conditions. Prior to the addition of the fluorescence probe, the protein:S31-201.1066 mixtures were allowed to equilibrate at room temperature for 15 min. Probe was added at a final concentration of 10 nM and incubated for 30 min at room temperature following which the FP measurements were taken using the POLARstar Omega, with the set gain adjustment at 35 mP.
The FP assay was used to further test the computational modeling prediction of the ability of S31-201.1066 to disrupt Stat3 interaction with its cognate pTyr peptide.

The test system of a further experiment is Stat5:Stat5 complex. As to the kind of experiment: EMSA selectivity, nuclear extracts of EGF-stimulated NIH3T3/hEGFR, MGFe probe. The experiment is classed as biochemical, mouse. The conditions noted are these: up to 300 μM. The method, then:
Nuclear extract preparations and electrophoretic mobility shift assay (EMSA) were carried out as previously described (28,33). […] Except where indicated, nuclear extracts were pre-incubated with compound for 30 min at room temperature prior to incubation with the radiolabeled probe for 30 min at 30° C. before subjecting to EMSA analysis.

Experiment [4] has as its system NIH3T3/v-Src, MDA-MB-231 and Panc-1 cells. As to the kind of experiment: Soft-agar colony formation assay. In kind it is cell-based, mouse, human. The method, then: Colony formation assays were carried out in 6-well dishes, as described previously (16,37). Briefly, each well contained 1.5 ml of 1% agarose in Dulbeco's modified Eagle's medium as the bottom layer and 1.5 ml of 0.5% agarose in Dulbeco's modified Eagle's medium containing 4000 or 6000 NIH3T3/v-Src or NIH3T3/v-Ras fibroblasts, respectively, as the top layer. Treatment with S3I201.1066 was initiated 1 day after seeding cells by adding 80 μl of medium with or without S3I20.1.1066, and repeating every 3 days, until large colonies were evident. Colonies were quantified by staining with 20 μl of 1 mg/ml crystal violet, incubating at 37° C. overnight, and counting the next day under phase contrast microscope.

In experiment [5] the test system is Stat3. As to the kind of experiment: Intracellular Stat3 activation: EMSA of nuclear extracts from treated NIH3T3/v-Src, Panc-1 and MDA-MB-231 cells. The experiment is classed as cell-based, mouse, human. The conditions noted are these: 50 μM, 24 h, Panc-1, MDA-MB-231. The method, then:
Nuclear extract preparations and electrophoretic mobility shift assay (EMSA) were carried out as previously described (28,33). The ^32P-labeled oligonucleotide probes used were hSIE (high affinity sis-inducible element from the c-fos gene, m67 variant, 5′[…]; SEQ ID NO:5) that binds Stat1 and Stat3 (34) and MGFe (mammary gland factor element from the bovine β-casein gene promoter, 5′-[…]; SEQ ID NO:6) for Stat1 and Stat5 binding (35,36). Except where indicated, nuclear extracts were pre-incubated with compound for 30 min at room temperature prior to incubation with the radiolabeled probe for 30 min at 30° C. before subjecting to EMSA analysis. Bands corresponding to DNA-binding activities were scanned and quantified for each concentration of compound using ImageQuant and plotted as percent of control (vehicle) against concentration of compound, from which the IC50 values were derived, as previously reported (37).
Stat3 is constitutively activated in a variety of malignant cells, including human breast and pancreatic cancer cells (9, 10, 20).
Twenty-four hours after treatment, nuclear extracts were prepared from cells and subjected to Stat3 DNA-binding assay in vitro using the radiolabeled hSIE probe and analyzed by EMSA.

Experiment [6] has as its system NIH3T3/v-Src, MDA-MB-231 and Panc-1 cells. As to the kind of experiment: Viable cell numbers and growth (CyQuant, trypan blue exclusion), cells with aberrant Stat3. In kind it is cell-based, mouse, human.
The subject of experiment [7] is Src (pY416Src), Jak1 (pJak), Shc (pShc), and Erk1/2 (pErk1/2). Nature of the experiment: Western blot of phosphorylation of Src, Jak1, Shc, Erk1/2 in NIH3T3/v-Src and Panc-1 cells. In kind it is cell-based, mouse, human. The method, then:
as §1
We infer that […].

The mark [8] stands for this setting: increasing concentrations, 24-144 h.

Sequence of Stat3 (Mus musculus, UniProt P42227) (P42227 whole entry, the tested form may be a part): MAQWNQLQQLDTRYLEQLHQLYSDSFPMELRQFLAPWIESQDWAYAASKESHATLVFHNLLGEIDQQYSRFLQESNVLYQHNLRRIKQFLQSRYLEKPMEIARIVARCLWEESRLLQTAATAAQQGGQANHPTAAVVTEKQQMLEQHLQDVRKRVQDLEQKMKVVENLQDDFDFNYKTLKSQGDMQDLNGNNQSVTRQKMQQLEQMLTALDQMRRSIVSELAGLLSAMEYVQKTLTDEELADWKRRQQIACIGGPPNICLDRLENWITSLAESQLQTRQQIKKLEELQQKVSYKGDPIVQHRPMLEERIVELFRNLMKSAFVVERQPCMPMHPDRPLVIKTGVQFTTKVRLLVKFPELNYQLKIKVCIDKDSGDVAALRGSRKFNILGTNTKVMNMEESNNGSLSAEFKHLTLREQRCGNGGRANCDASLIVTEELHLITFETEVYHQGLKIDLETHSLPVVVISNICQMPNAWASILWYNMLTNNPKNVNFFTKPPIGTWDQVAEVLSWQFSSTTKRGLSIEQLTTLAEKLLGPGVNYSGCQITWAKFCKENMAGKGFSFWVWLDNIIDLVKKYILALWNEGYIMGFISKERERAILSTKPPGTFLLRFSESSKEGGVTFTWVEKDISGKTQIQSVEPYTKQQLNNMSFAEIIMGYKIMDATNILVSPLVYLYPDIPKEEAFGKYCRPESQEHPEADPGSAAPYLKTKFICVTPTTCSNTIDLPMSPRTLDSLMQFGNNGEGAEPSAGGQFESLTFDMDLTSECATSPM

With `Cc1ccc(S(=O)(=O)N(C)CC(=O)N(Cc2ccc(C3CCCCC3)cc2)c2ccc(C(=O)O)c(O)c2)cc1` [S3I-201.1066], the pTyr705Stat3 levels entry with pTyr705Stat3 is “concentration-dependent reduction”. For the same compound, the “derived IC60 values, viability” value in experiment [1] and in experiment [2] was over 200 μMm each time. Moreover, on Stat3 [3], the IC50 is 45 µM and 23 µM and 20 µM. The “effect on Stat5:Stat5 complex with the MGFe probe” value in the experiment with Stat5:Stat5 complex is on record as “no effect”. Moreover, the “growth in soft-agar suspension” value in experiment [4] is reported as “significantly inhibited”. In addition, the “constitutive Stat3 activation in treated cells” value with Stat3 [5] is “significant inhibition”. In addition, the “concentrations at which antitumor cell effects occurred” value in experiment [6] lay within 30 to 50 µM. Moreover, in [6] (setting [8]), the “growth (trypan blue exclusion)” value was “growth inhibited”. Further, the viable cell numbers result in [6] (setting [8]) is reported as “significantly reduced viable cell numbers”. Moreover, the “pJak1 level in Panc-1 cells” value in experiment [7] (100 μM, Panc-1) was “disappearance of pJak1 level”. Moreover, the “inhibitory effect on phosphorylation of Src, Jak1, Erk1/2MAPK and Shc” value in [7] (30-50 μM) is “minimum inhibitory effect”. Moreover, the “phosphorylation of Src, Jak1, Shc and Erk1/2” value in experiment [7] (24 h, NIH3T3/v-Src and Panc-1) is “no significant effects”.
